This is an account of results in patent publication US20150353495A1 (PORTOLA PHARMACEUTICALS, INC., priority 2010, published 2015).

One assay has as its target T1, JAK2 (Homo sapiens, UniProt O60674).
T1 construct: 5 μl of catalytic domain recombinant Kinase enzyme+Tyr peptide substrate (Invitrogen, CA); purchased Invitrogen
Briefly: Z'-LYTE kinase assay JAK2. Format: biochemical. The essentials:
(§1)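 Catalytic-domain recombinant kinase was incubated with Tyr6 FRET peptide, ATP and compound (1% DMSO final) for 1 h at room temperature. Protease development followed for 1 h, cleaving only non-phosphorylated peptide. Inhibition of phosphorylation was read as coumarin/fluorescein FRET fluorescence.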

In the next assay the target is T2, JAK1 (Homo sapiens, UniProt P23458).
T2 construct: 5 μl of catalytic domain recombinant Kinase enzyme+Tyr peptide substrate (Invitrogen, CA); purchased Invitrogen
T2 sequence (P23458 875-1153 limits assumed): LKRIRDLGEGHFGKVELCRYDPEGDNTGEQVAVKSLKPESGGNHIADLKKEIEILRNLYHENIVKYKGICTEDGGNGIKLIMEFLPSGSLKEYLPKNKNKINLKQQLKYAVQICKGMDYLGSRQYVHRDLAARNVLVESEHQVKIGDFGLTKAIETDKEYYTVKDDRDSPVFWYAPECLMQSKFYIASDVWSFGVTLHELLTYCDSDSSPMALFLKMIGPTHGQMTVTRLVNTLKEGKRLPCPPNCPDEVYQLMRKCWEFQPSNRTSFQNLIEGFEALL
Briefly: Z'-LYTE kinase assay JAK1. Format: biochemical. The essentials: as §1

Assay [1] has as its system JAK1/3 signaling to STAT5 in primary T cells. The assay can be described thus: IL2 stimulation of JAK1/3 signaling to STAT5 in primary T cells (pSTAT5 Y694, FACS). Format: cell-based. The following applies: T-cell; for inhibition at 0.2 µM: 0.2 uM compound, read-out: IL-2/STAT5 Percent Inhibition at 0.2 uM; for inhibition at 1 µM: 1.0 μM compound, read-out: IL-2/STAT5 Percent Inhibition at 1.0 μM. Here is the method: IL2 Stimulation of JAK1/3 Signaling to STAT5 in Primary T Cells:
The effect of JAK inhibitors on cytokine signaling pathways utilizing JAK3 was determined using an IL2 stimulation assay. IL2 engages a receptor complex that contains the IL2 receptor alpha and beta subunits, and the common gamma chain, to initiate activation of JAK1 and JAK3 leading to phosphorylation of STAT5 at tyrosine position 694. Lymphocytes are isolated from heparinized whole blood over a ficoll gradient, then resuspended in tissue culture media containing 10% fetal calf serum at 10×10̂6 cells/ml. 100 μl aliquots are pre-treated for 1 hour with various concentrations of compound, and then stimulated for 12 minutes with 100 U/ml IL2. The signaling reaction is terminated by fixing in 2% paraformaldehyde for 10 minutes at room temperature. Fixed cells are then washed and permeablized by suspension in 50% methanol (in PBS) at −80° C. Following overnight incubation at 4° C., cells are washed and resuspended in PBS containing 0.5% bovine serum albumin containing CD3-APC and pSTAT5 Y694-PE conjugated antibodies. After 1 hour incubation, cells are washed and the extent of STAT5 phosphorlyation in T cells is measured by FACS analysis.

The target in another assay is T3, TYK2 (Homo sapiens, UniProt P29597).
T3 construct: 5 μl of catalytic domain recombinant Kinase enzyme+Tyr peptide substrate (Invitrogen, CA); purchased Invitrogen
T3 sequence (P29597 897-1176 limits assumed): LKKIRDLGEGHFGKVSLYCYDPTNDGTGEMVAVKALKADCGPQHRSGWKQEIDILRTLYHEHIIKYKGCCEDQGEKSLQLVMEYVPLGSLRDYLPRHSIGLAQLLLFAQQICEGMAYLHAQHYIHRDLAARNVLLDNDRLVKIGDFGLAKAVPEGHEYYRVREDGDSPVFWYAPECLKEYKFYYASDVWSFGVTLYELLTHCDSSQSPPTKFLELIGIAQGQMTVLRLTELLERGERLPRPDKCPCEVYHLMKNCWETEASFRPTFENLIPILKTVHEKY
Briefly: Z'-LYTE kinase assay TYK2. Format: biochemical. The essentials:
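Recombinant catalytic-domain TYK2 with Tyr6 peptide in Z′-LYTE FRET format, 1% DMSO final, kinase reaction 1 h at room temperature, then protease development 1 h. Fluorescence read at 445/520 nm (excitation 400 nm), percent phosphorylation vs no-inhibitor control, IC50 from 4-parameter logistic fit.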

Assay [2] concerns JAK1/3 signaling to STAT6 in Ramos B cells. The assay can be described thus: IL4 stimulation of JAK1/3 signaling to STAT6 in Ramos B cells (pSTAT6 Y641, FACS). Format: cell-based. The conditions noted are these: Homo sapiens; for inhibition at 0.2 µM: 0.2 uM compound, read-out: IL-4/STAT6 in Ramos Percent Inhibition at 0.2 uM; for inhibition at 1 µM: 1.0 uM compound, read-out: IL-4/STAT6 in Ramos Percent Inhibition at 1.0 uM. The essentials: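 Ramos cells in 10% FCS medium were pre-treated 1 h with compound, stimulated 15 min with 15 ng IL4, fixed in 2% paraformaldehyde and methanol-permeabilized. Intracellular phospho-STAT6 Y641 was stained with PE-conjugated antibody and quantified by flow cytometry.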

Another assay addresses T4, JAK3 (Homo sapiens, UniProt P52333).
T4 construct: 5 μl of catalytic domain recombinant Kinase enzyme+Tyr peptide substrate (Invitrogen, CA); purchased Invitrogen
Briefly: Z'-LYTE kinase assay JAK3. The assay is classed as biochemical. The essentials: as §1

Bounds are passed on as bounds.

T4 sequence (P52333 822-1111 limits assumed): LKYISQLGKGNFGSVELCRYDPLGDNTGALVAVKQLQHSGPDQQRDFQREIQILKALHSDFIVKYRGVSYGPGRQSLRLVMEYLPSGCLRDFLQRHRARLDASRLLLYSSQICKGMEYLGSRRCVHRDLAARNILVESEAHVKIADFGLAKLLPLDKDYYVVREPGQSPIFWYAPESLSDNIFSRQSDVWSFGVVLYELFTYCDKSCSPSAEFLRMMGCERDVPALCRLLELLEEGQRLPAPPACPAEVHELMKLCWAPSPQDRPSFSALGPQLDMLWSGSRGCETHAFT
T1 sequence (O60674 849-1124 limits assumed): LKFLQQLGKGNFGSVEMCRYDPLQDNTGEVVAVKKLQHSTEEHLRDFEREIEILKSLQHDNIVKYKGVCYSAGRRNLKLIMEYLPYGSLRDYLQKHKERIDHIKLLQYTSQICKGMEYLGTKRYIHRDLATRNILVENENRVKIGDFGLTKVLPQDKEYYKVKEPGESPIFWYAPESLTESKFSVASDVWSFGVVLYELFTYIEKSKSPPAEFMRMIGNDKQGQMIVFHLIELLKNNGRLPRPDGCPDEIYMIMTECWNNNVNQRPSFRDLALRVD

Usually IC50 stands for the concentration needed to halve the response being measured. In the case of `NC(=O)c1cnc(Nc2ccc(OCCN3CCCC3)cc2)cc1NCc1ccccc1` [Example 428, 4-(benzylamino)-6-(4-(2-(pyrrolidin-1-yl)ethoxy)phenylamino)nicotinamide], the concentration for half-maximal inhibition (IC50) at JAK2 was 100 to 1000 nM; against JAK1, above 1000 nM; on TYK2 it was above 1000 nM; against JAK3, 1 to 10 nM. Also, the inhibition at 0.2 µM was found to be 56% in assay [1] and 33% in assay [2]. Further, the inhibition at 1 µM in assay [1] is 84%; in assay [2], 46%.
For the compound `NC(=O)c1cnc(Nc2ccc(C(=O)N3CCC3)cc2)cc1NCc1c(F)cccc1F` [Example 105, 6-(4-(azetidine-1-carbonyl)phenylamino)-4-(2,6-difluorobenzylamino)nicotinamide], the IC50 against JAK2 is 10 to 100 nM; against JAK1 it was 10 to 100 nM; at TYK2 it was 10 to 100 nM; against JAK3, 1 to 10 nM. Moreover, the inhibition at 0.2 µM in assay [1] turned out to be 72%; in assay [2], 53%. Further, the values for the inhibition at 1 µM in assay [1] and in assay [2] were 99% and 88%, respectively.
On to `CCC(=O)N1CCC(c2ccc(Nc3cc(NCc4ccccc4F)c(C(N)=O)cn3)cc2)CC1` [Example 79], for which the IC50 on JAK2 lay within 100 to 1000 nM; against JAK1, 100 to 1000 nM; at TYK2, 100 to 1000 nM; at JAK3, 10 to 100 nM. The results for the inhibition at 0.2 µM in assay [1] and in assay [2] were 53% and 20%, respectively. For the same compound, the inhibition at 1 µM in assay [1] was determined as 73%; in assay [2], 43%.
On to `NC(=O)c1cnc(Nc2ccc(C(=O)N3CCCC3)cc2)cc1NCc1ccccc1` [Example 39, 4-(benzylamino)-6-(4-(pyrrolidine-1-carbonyl)phenylamino)nicotinamide], for which the half-inhibitory concentration (IC50) against JAK2 lay within 100 to 1000 nM; on JAK1, 100 to 1000 nM; against TYK2, 100 to 1000 nM; against JAK3 it was 1 to 10 nM. For the same compound, the results for the inhibition at 0.2 µM in assay [1] and in assay [2] were 37% and 47%, respectively. Also, the inhibition at 1 µM in assay [1] was determined as 65%; in assay [2], 52%.
Consider `Cc1cc(Nc2cc(NCc3cccc(F)c3)c(C(N)=O)cn2)ccc1N1CCCC1=O` [Example 61, 4-(3-fluorobenzylamino)-6-(3-methyl-4-(2-oxopyrrolidin-1-yl)phenylamino)nicotinamide], for which the half-inhibitory concentration (IC50) was in the range of 10 to 100 nM at JAK2, 100 to 1000 nM against JAK1, 100 to 1000 nM at TYK2 and 1 to 10 nM against JAK3. The inhibition at 0.2 µM is 39% in assay [1] and 40% in assay [2]. Further, the inhibition at 1 µM in assay [1] came to 67%; in assay [2], 60%.
On to `NC(=O)c1cnc(Nc2cccc(C(=O)N3CCCCC3)c2)cc1NCc1ccccc1` [Example 249, 4-(benzylamino)-6-(3-(piperidine-1-carbonyl)phenylamino)nicotinamide], for which the concentration for half-maximal inhibition (IC50) at JAK2 is 100 to 1000 nM; on JAK1, 100 to 1000 nM; against TYK2, above 1000 nM; against JAK3, 10 to 100 nM. Further, the inhibition at 0.2 µM in assay [1] came out at 12%; in assay [2], 23%. The values for the inhibition at 1 µM in assay [1] and in assay [2] were 29% and 32%, respectively.
Consider `CN1CCC(c2ccc(Nc3cc(NCc4ccccc4F)c(C(N)=O)cn3)cc2)CC1` [Example 107, 4-(2-fluorobenzylamino)-6-(4-(1-methylpiperidin-4-yl)phenylamino)nicotinamide], for which the half-maximal inhibitory concentration (IC50) lay within 100 to 1000 nM at JAK2, 100 to 1000 nM on JAK1, 100 to 1000 nM against TYK2 and 1 to 10 nM against JAK3. Besides, the inhibition at 0.2 µM in assay [1] came to 58%; in assay [2], 43%. The inhibition at 1 µM in assay [1] was 82%; in assay [2], 73%.
On to `NC(=O)c1cnc(Nc2ccc(N3CCOCC3)cc2)cc1NCc1ccccc1` [Example 250, 4-(benzylamino)-6-(4-morpholinophenylamino)nicotinamide], for which the concentration for half-maximal inhibition (IC50) against JAK2 was 100 to 1000 nM; against JAK1, above 1000 nM; on TYK2, above 1000 nM; against JAK3, 1 to 10 nM. Besides, the inhibition at 0.2 µM in assay [1] is 18%; in assay [2], 11%. The inhibition at 1 µM in assay [1] was found to be 50%; in assay [2], 26%.
As for `NC(=O)c1cnc(Nc2ccc(C3CCN(C(=O)C4CCOCC4)CC3)cc2)cc1NCc1ccccc1F` [Example 119, 4-(2-fluorobenzylamino)-6-(4-(1-(tetrahydro-2H-pyran-4-carbonyl)piperidin-4-yl)phenylamino)nicotinamide], the IC50 against JAK2 was 10 to 100 nM; on JAK1, 100 to 1000 nM; against TYK2 it was 100 to 1000 nM; against JAK3, 1 to 10 nM. Also, the inhibition at 0.2 µM in assay [1] came to 54%; in assay [2], 17%. Besides, the inhibition at 1 µM in assay [1] was 83%; in assay [2], 47%.
With `NC(=O)c1cnc(Nc2ccc(OCCN3CCOCC3)cc2)cc1NCc1ccccc1` [Example 429, 4-(benzylamino)-6-(4-(2-morpholinoethoxyl)phenylamino)nicotinamide], the IC50 against JAK2 is 100 to 1000 nM; on JAK1 it was 100 to 1000 nM; at TYK2, above 1000 nM; against JAK3, 1 to 10 nM. The inhibition at 0.2 µM in assay [1] was 60%; in assay [2] it was 19%. The inhibition at 1 µM in assay [1] was determined as 77%; in assay [2], 33%.
Consider `CC(=O)N1CCN(c2ccc(Nc3cc(N[C@H](C)c4ccccc4)c(C(N)=O)cn3)cc2)CC1` [Example 7, (R)-6-(4-(4-acetylpiperazin-1-yl)phenylamino)-4-(1-phenylethylamino)nicotinamide], for which the IC50 against JAK2 is 100 to 1000 nM; on JAK1, 100 to 1000 nM; against TYK2, above 1000 nM; at JAK3, 1 to 10 nM. In addition, the inhibition at 0.2 µM in assay [1] amounted to 29%; in assay [2], 10%. In addition, the figures for the inhibition at 1 µM in assay [1] and in assay [2] were 74% and 40%, respectively.
